Reference: US20250064064A1, “METHODS FOR DESIGNING AND […] VAPOR PHASE HYDROGEN PEROXIDE DECON[…]” (Amgen Inc., priority 2021, published 2025)
Like-named read-outs stand apart in the source and are kept apart here.

Tested on: viable spores of Geobacillus stearothermophilus
Conditions: for growth results for biological indicators: dose 8 mL, seven BIs, seven-day incubation, no growth = 6-Log CFU reduction
Protocol: In general, for each of the experiments, a respective amount of gas is circulated in a chamber interior containing Bls (in these experiments, seven Bls) for a respective amount of time. Then, after removing the gas from the chamber interior, the Bls are tested to determine whether the desired CFU reduction was achieved.
One example method of determining whether the desired CFU reduction was achieved is by removing the Bls from the chamber interior after circulating a particular amount of gas for a particular amount of time, and incubating the Bls in a growth-promoting medium for seven days.
In this example, the seven Bls of FIG. 3 may be in one or more locations in the chamber interior (e.g., with at least some in locations that are relatively difficult to decontaminate in the chamber interior). The Bls may be inoculated with viable spores of Geobacillus stearothermophilus, for example, or another suitable type of thermophile bacteria. The D-value of the Bls may be provided by the manufacturer of the Bls and may be, for example, 0.25 minutes, 0.5 minutes, 1 minutes, 1.5 minutes, 2 minutes, 2.5 minutes, or any other suitable D-value.

OO [gas, hydrogen peroxide]
growth-no growth behavior with respect to time (10 mL amount of gas compared with 8 mL amount of gas): identical | growth results for biological indicators (gas circulated for 100 seconds): all but one BI (BI #4) achieving no growth | growth results for biological indicators (gas circulated for 300 seconds): no growth for all seven Bls | growth results for biological indicators (gas circulated for 500 seconds): no growth for all seven Bls
